ChEMBL document CHEMBL3877320, “Synthesis of new analogs of AKBA and evaluation of their anti-inflammatory activities” (Bioorg Med Chem, 2017)
≈ marks a conversion by molar mass, not a printed value.

Experiment: Inhibition of potato 5-lipoxygenase using linoleic acid as substrate preincubated for 2 mins followed by substrate addition measured for 120 secs
Parameters: species or system Solanum tuberosum

IC50 [µg/mL]	Structure (SMILES)
> 100	C[C@H]1[C@H](C)CC[C@]2(C)CC[C@]3(C)C(=CC(=O)[C@@H]4[C@@]5(C)Cc6cn[nH]c6[C@](C)(C(=O)O)[C@@H]5CC[C@]43C)[C@H]12
> 100	C[C@H]1[C@H](C)CC[C@]2(C)CC[C@]3(C)C(=CC(=O)[C@@H]4[C@@]5(C)CC(C=O)C(=O)[C@](C)(C(=O)N6CCCCC6)[C@@H]5CC[C@]43C)[C@H]12 (some centres undefined)
> 100	C[C@H]1[C@H](C)CC[C@]2(C)CC[C@]3(C)C(=CC(=O)[C@@H]4[C@@]5(C)Cc6cn[nH]c6[C@](C)(C(=O)N6CCNCC6)[C@@H]5CC[C@]43C)[C@H]12
20.31 (≈ 36.2 µM)	C[C@H]1[C@H](C)CC[C@]2(C)CC[C@]3(C)C(=CC(=O)[C@@H]4[C@@]5(C)Cc6cnoc6[C@](C)(C(=O)N6CCCCC6)[C@@H]5CC[C@]43C)[C@H]12
> 100	COC(=O)[C@@]1(C)C(=O)C(C#N)=C[C@]2(C)[C@H]3C(=O)C=C4[C@@H]5[C@@H](C)[C@H](C)CC[C@]5(C)CC[C@@]4(C)[C@]3(C)CC[C@@H]12
> 100	C[C@H]1[C@H](C)CC[C@]2(C)CC[C@]3(C)C(=CC(=O)[C@@H]4[C@@]5(C)Cc6cn[nH]c6[C@](C)(C(=O)N6CCCCC6)[C@@H]5CC[C@]43C)[C@H]12
19.53 (≈ 34.2 µM)	C[C@H]1[C@H](C)CC[C@]2(C)CC[C@]3(C)C(=CC(=O)[C@@H]4[C@@]5(C)CC(C=O)C(=O)[C@](C)(C(=O)Nc6ccccc6)[C@@H]5CC[C@]43C)[C@H]12 (some centres undefined)
> 100	COC(=O)[C@@]1(C)c2oncc2C[C@@]2(C)[C@H]1CC[C@]1(C)[C@@H]2C(=O)C=C2[C@@H]3[C@@H](C)[C@H](C)CC[C@]3(C)CC[C@]21C
> 100	C[C@H]1[C@H](C)CC[C@]2(C)CC[C@]3(C)C(=CC(=O)[C@@H]4[C@@]5(C)CC(C=O)C(=O)[C@](C)(C(=O)N6CCOCC6)[C@@H]5CC[C@]43C)[C@H]12 (some centres undefined)
> 100	C[C@H]1[C@H](C)CC[C@]2(C)CC[C@]3(C)C(=CC(=O)[C@@H]4[C@@]5(C)Cc6cnoc6[C@](C)(C(=O)N6CCN(C)CC6)[C@@H]5CC[C@]43C)[C@H]12
44.14 (≈ 97.5 µM)	C[C@H]1[C@H](C)CC[C@]2(C)CC[C@]3(C)C(=CC(=O)[C@@H]4[C@@]5(C)CC(C=O)C(=O)[C@@H](C)[C@@H]5CC[C@]43C)[C@H]12 (some centres undefined)
> 100	C[C@H]1[C@H](C)CC[C@]2(C)CC[C@]3(C)C(=CC(=O)[C@@H]4[C@@]5(C)Cc6cn[nH]c6[C@](C)(C(=O)N6CCN(C)CC6)[C@@H]5CC[C@]43C)[C@H]12
> 100	C[C@H]1[C@H](C)CC[C@]2(C)CC[C@]3(C)C(=CC(=O)[C@@H]4[C@@]5(C)CC(C=O)C(=O)[C@](C)(C(N)=O)[C@@H]5CC[C@]43C)[C@H]12 (some centres undefined)
94.6 (≈ 185 µM)	CC(=O)O[C@@H]1CC[C@@]2(C)[C@@H](CC[C@]3(C)[C@@H]2C(=O)C=C2[C@@H]4[C@@H](C)[C@H](C)CC[C@]4(C)CC[C@]23C)[C@@]1(C)C(=O)O [AKBA]
